Assay results published in patent US20250368639A1, “SOLID FORMS OF A COMPOUND FOR TREATING OR PREVENTING HYPERURICEMIA OR GOUT” (ATOM THERAPEUTICS CO., LTD, priority 2022, published 2025).
In brackets after ≈: the same amount, converted by molar mass. Like-named read-outs stand apart in the source and are kept apart here.

What was measured:
[1] = Dynamic vapor sorption/desorption (DVS); assay type: physicochemical
Description: Moisture sorption/desorption data were collected on a SMS DVS intrinsic Vapor Sorption Analyzer under a nitrogen purge. The DVS experiment generally includes a moisture sorption step and a moisture desorption step. […] In other words, the sample is considered to have reached an equilibrium between moisture sorption and desorption under the relative humidity when dm/dt≤0.01%. The sample was maintained at the temperature of 25° C. with relative humidity varied from 0% to 95%, and back to 0% at an increment of 5% RH each step.

[2] = Solubility in water, buffers and bio-relevant media (37° C., 24 h shaking, HPLC); assay type: physicochemical; details: 37° C., 24 h
Description: The solubility of Form 1, Form 2, Form 5D, Form 6, Form 8, and Form 11 was analyzed in water, 0.1NaqueousHCl, pH4.5 acetate buffer solution, pH6.8 phosphate buffer solution, simulated gastric fluid (SGF), Fasted State Simulated Intestinal Fluid (FaSSIF), and Fed State Simulated Intestinal Fluid (FeSSIF).
About 5 mg or 10 mg of sample was weighed out into each vial and mixed with about 5 ml of medium to form a solution. The target concentration for the potassium salt in water was 2 mg/ml; and the target concentration for all other forms were 1 mg/mL. All samples were kept shaking at 200 rounds per minute (rpm) under 37° C. for 24 hours. The pH value of these samples were determined after shaking for 24 hours. Subsequently, they were centrifuged at the speed of 12000 rpm for 2 mins. The supernatant was diluted with methanol as necessary, and the concentrations were determined by HPLC. When the solubility of potassium salt was tested in water, the supernatant was diluted 100 times, while no other samples were diluted. The HPLC analysis utilizes Agilent Eclipse XDB-C8 4.6*150 mm, 5 μm column at 40° C., a mobile phase of 0.1% TFA: ACN=70:30, an injection volume of 10 μl, a flow rate of 1.0 ml/min, a diluent of methanol, and a detection wavelength of 234 nm.

[3] = Single-dose pharmacokinetic study, oral and intravenous, in SD rats; assay type: in vivo, SD rat; details: for AUC(0-t) / Cmax / MRT last / AUC(0-inf) / clearance / half-life / Vd / Vd/F: male, SD, rat, plasma; for AUC(0-inf): read-out: AUCINF—pred; for clearance: read-out: Cl—pred (converted); for half-life: read-out: HL_Lambda_z (T1/2) (converted); for Vd: read-out: Vz—pred; for Vd/F: read-out: Vz—F—pred
Description: Form 1, Form 2, and Form 5D were each evaluated via a single-dose pharmacokinetic study following oral and intravenous administration in SD rats. […] Form 1, Form 2, and Form 5Dwere evaluated by rat pharmacokinetics study.
Male SD rat was purchased from Shanghai Sippr B&K Laboratory Animals Co., Ltd. The weight was 180 g˜200 g.
20% HP-β-CD was prepared from dissolving20 g of HP-β-CD (from Sigma) in 100 mL purified water. 0.5% CMC-Na was prepared from dissolving 1 g of CMC-Na (from Aladdin) in 200 mL purified water. The solutions were stored at 2-8 degree.
Group 1:4.95 mg (equivalent to 4.50 mg of anhydrous free base) of Form 1 was weighed out into a 20 ml bottle, and totally dissolved by 0.225 mL DMSO by sonication. After that, 4.275 mL of 20% HP-β-CD was added, mixed well by sonication. Finally, the pH value was adjusted to 7.0 by sodium hydroxide solution. The clear solution was obtained, and the concentration was 1 mg/mL.
Group 2:10.08 mg (equivalent to 9.164 mg of anhydrous free base) of Form 1 was weighed out into a 20 ml bottle, and then 9.164 mL of 0.5% CMC-Na was added. A white suspension was formed after sonicated by ultrasonic cell disruptor, and the concentration was 1 mg/mL.
Group 3:9.47 mg of Form 2 was weighed out into a 20 ml bottle, and then 9.470 mL of 0.5% CMC-Na was added. After sonicated, it was mixed well by homogenizer for 2 minutes. Finally, a white suspension was formed, and the concentration was 1 mg/mL.
Group 4:9.80 mg (equivalent to 8.909 mg of free base) of Form 5Dwas weighed out into a 20 mL bottle, and then 8.909 mL of 0.5% CMC-Na was added. After sonicated, it was mixed well by homogenizer for 2 minutes. Finally, a white suspension was formed, and the concentration was 1 mg/mL.
Group 5:1.94 mg (equivalent to 1.763 mg of anhydrous free base) of Form 1 was weighed out into a 20 ml bottle, and totally dissolved by 0.088 mL DMSO by sonication. After that, 1.675 mL of 20% HP-β-CD was added, mixed well by sonication. Finally, the pH value was adjusted to 7.0 by sodium hydroxide solution. The clear solution was obtained, and the concentration was 0.2 mg/mL.
The dose of intravenous administration was 1 mg/kg and 5 mg/kg, respectively. The oral dose was 10 mg/kg. Animals were fasted overnight before drug administration. After the drug administration, the rats were fed at the 4 hours.
About 150˜200 μL of blood was collected at the initial time (only intravenous), and at 0.25, 0.5, 1, 2, 4, 6, 8 and 24 h by jugular venipuncture blooding method. EDTA-K2 was selected as anticoagulant. Blood samples were centrifuged within one hour at 6000 rpm for 8 minutes (placed on wet ice before centrifugation). The supernatant was stored at −20° C. for LC-MS/MS analysis.
The computer program Microsoft Office Excel 2007 (Microsoft, USA) was used to process data and graphics. The pharmacokinetic parameters were calculated by WinNolin 6.4 software.

[4] = iv, 1 mg/kg, male SD rats, intravenous 1 mg/kg, Average
[5] = iv, 1 mg/kg, male SD rats, intravenous 1 mg/kg, individual rats 501/502/503 (c1/c2/c3)
[6] = iv, 5 mg/kg, male SD rats, 5 mg/kg (intravenous), Average
[7] = iv, 5 mg/kg, male SD rats, 5 mg/kg (intravenous), individual rats 101/102/103 (c1/c2/c3)
[8] = po, 10 mg/kg, male SD rats, oral 10 mg/kg, Average (Table 9)
[9] = po, 10 mg/kg, male SD rats, oral 10 mg/kg, individual rats 201/202/203 (c1/c2/c3)

Question: For CCc1nc2ccccn2c1C(=O)c1cc(Br)c(O)c(C#N)c1 [Form 1, 3-bromo-5-[(2-ethylimidazo[1,2-a]pyridin-3-yl)carbonyl]-2-hydroxybenzonitrile], which “DVS (80% RH)” value ([1]; 25° C., 80% RH) is on record?
Answer: The value was 5.32%.

Question: And the “DVS (85% RH)” value ([1]; 25° C., 85% RH)?
Answer: Its value is 5.68%.

Question: And the “Moisture absorbed (DVS)” value ([1]; relative humidity cycled from 0% RH to 5% RH)?
Answer: The value was “about 3.4 % by weight”.

Question: And the Solubility ([2]; 0.1N HCl)?
Answer: Its Solubility is 5.0 µg/mL (≈ 13.5 µM).

Question: What about the “Solubility in the buffer solution and bio-relevant medium” value [2] of the same compound?
Answer: Its value is “low solubilities”.

Question: What about the Solubility ([2]; FaSSIF) of the same compound?
Answer: The Solubility was 16.6 µg/mL (≈ 44.8 µM).

Question: What about the Solubility ([2]; FeSSIF) of the same compound?
Answer: The Solubility was 1.9 µg/mL (≈ 5.13 µM).

Question: And the Solubility ([2]; SGF)?
Answer: Its Solubility is 2.9 µg/mL (≈ 7.83 µM).

Question: And the Solubility ([2]; Water)?
Answer: Its Solubility is 9.4 µg/mL (≈ 25.4 µM).

Question: What about the Solubility ([2]; pH 4.5 acetate buffer) of the same compound?
Answer: The Solubility was 1.0 µg/mL (≈ 2.7 µM).

Question: And the Solubility ([2]; pH 6.8 phosphate buffer)?
Answer: The Solubility was 19.8 µg/mL (≈ 53.5 µM).

Question: And the “Exposure at 5 mg/kg relative to 1 mg/kg” value ([3]; SD rats, intravenous administration, 5 mg/kg versus 1 mg/kg)?
Answer: Its value is “about 5 times”.

Question: And the “Exposure and bioavailability (words, comparison)” value ([3]; SD rats, oral administration 10 mg/kg, 10 mg/kg)?
Answer: The value was “sufficiently high bioavailability”.

Question: What about the “Cl—F—pred” value ([3]; male SD rats, oral 10 mg/kg, Average (Table 9)) of the same compound?
Answer: Its value is 2.17 mL/min/kg.

Question: What about the F ([3]; male SD rats, oral 10 mg/kg, calculated by intravenous administration of 1 mg/kg, Average (Table 9)) of the same compound?
Answer: The F was 43.54%.

Question: And the AUC(0-t) [3, 4]?
Answer: The AUC(0-t) was 17400 ng·h/mL.

Question: And the Cmax [3, 4]?
Answer: The Cmax was 9580 ng/mL.

Question: What about the MRT last [3, 4] of the same compound?
Answer: Its MRT last is 3.65 h.

Question: And the AUC(0-inf) [3, 4]?
Answer: The AUC(0-inf) was 17400 ng·h/mL.

Question: And the clearance [3, 4]?
Answer: Its clearance is 1 mL/min/kg.

Question: What about the half-life [3, 4] of the same compound?
Answer: Its half-life is 2.9 h.

Question: And the Vd [3, 4]?
Answer: Its Vd is 0.24 L/kg.

Question: What about the AUC(0-t) [3, 5] of the same compound?
Answer: Its AUC(0-t) is 18500 ng·h/mL.

Question: What about the Cmax [3, 5] of the same compound?
Answer: The Cmax was 7120 ng/mL.

Question: What about the MRT last [3, 5] of the same compound?
Answer: The MRT last was 3.99 h.

Question: What about the AUC(0-inf) [3, 5] of the same compound?
Answer: The AUC(0-inf) was 18500 ng·h/mL.

Question: And the clearance [3, 5]?
Answer: The clearance was 0.833 mL/min/kg.

Question: And the half-life [3, 5]?
Answer: Its half-life is 3.2 h.

Question: And the Vd [3, 5]?
Answer: Its Vd is 0.25 L/kg.

Question: What about the AUC(0-t) [3, 6] of the same compound?
Answer: Its AUC(0-t) is 80200 ng·h/mL.

Question: What about the Cmax [3, 6] of the same compound?
Answer: Its Cmax is 51400 ng/mL.

Question: And the MRT last [3, 6]?
Answer: Its MRT last is 3.44 h.

Question: And the AUC(0-inf) [3, 6]?
Answer: Its AUC(0-inf) is 80500 ng·h/mL.

Question: And the clearance [3, 6]?
Answer: Its clearance is 1 mL/min/kg.

Question: And the half-life [3, 6]?
Answer: The half-life was 3.08 h.

Question: What about the Vd [3, 6] of the same compound?
Answer: Its Vd is 0.28 L/kg.

Question: And the AUC(0-t) [3, 7]?
Answer: The AUC(0-t) was 90800 ng·h/mL.

Question: What about the Cmax [3, 7] of the same compound?
Answer: The Cmax was 55700 ng/mL.

Question: What about the MRT last [3, 7] of the same compound?
Answer: The MRT last was 3.65 h.

Question: And the AUC(0-inf) [3, 7]?
Answer: Its AUC(0-inf) is 91100 ng·h/mL.

Question: And the clearance [3, 7]?
Answer: The clearance was 0.833 mL/min/kg.

Question: What about the half-life [3, 7] of the same compound?
Answer: The half-life was 3.12 h.

Question: What about the Vd [3, 7] of the same compound?
Answer: Its Vd is 0.25 L/kg.

Question: What about the AUC(0-t) [3, 8] of the same compound?
Answer: The AUC(0-t) was 75600 ng·h/mL.

Question: And the Cmax [3, 8]?
Answer: Its Cmax is 6480 ng/mL.

Question: And the MRT last [3, 8]?
Answer: The MRT last was 6.51 h.

Question: And the AUC(0-inf) [3, 8]?
Answer: Its AUC(0-inf) is 76200 ng·h/mL.

Question: What about the half-life [3, 8] of the same compound?
Answer: The half-life was 3.16 h.

Question: And the Vd/F [3, 8]?
Answer: The Vd/F was 0.61 L/kg.

Question: What about the AUC(0-t) [3, 9] of the same compound?
Answer: The AUC(0-t) was 71500 ng·h/mL.

Question: What about the Cmax [3, 9] of the same compound?
Answer: Its Cmax is 6030 ng/mL.

Question: And the MRT last [3, 9]?
Answer: Its MRT last is 6.64 h.

Question: And the AUC(0-inf) [3, 9]?
Answer: The AUC(0-inf) was 72100 ng·h/mL.

Question: What about the half-life [3, 9] of the same compound?
Answer: The half-life was 3.15 h.

Question: What about the Vd/F [3, 9] of the same compound?
Answer: The Vd/F was 0.63 L/kg.
